Test results taken from ChEMBL document CHEMBL2346567, “Selective aminopeptidase-N (CD13) inhibitors with relevance to cancer chemotherapy” (Bioorg Med Chem, 2013).
Activity calls are given as the source filed them. No cut-off for these calls is given here.

Tests used:
[1] = biological target: T1, Stromelysin-3 (Homo sapiens) (UniProt P24347); experiment: Inhibition of MMP11 (unknown origin) up to 50 uM
T1 sequence (whole entry): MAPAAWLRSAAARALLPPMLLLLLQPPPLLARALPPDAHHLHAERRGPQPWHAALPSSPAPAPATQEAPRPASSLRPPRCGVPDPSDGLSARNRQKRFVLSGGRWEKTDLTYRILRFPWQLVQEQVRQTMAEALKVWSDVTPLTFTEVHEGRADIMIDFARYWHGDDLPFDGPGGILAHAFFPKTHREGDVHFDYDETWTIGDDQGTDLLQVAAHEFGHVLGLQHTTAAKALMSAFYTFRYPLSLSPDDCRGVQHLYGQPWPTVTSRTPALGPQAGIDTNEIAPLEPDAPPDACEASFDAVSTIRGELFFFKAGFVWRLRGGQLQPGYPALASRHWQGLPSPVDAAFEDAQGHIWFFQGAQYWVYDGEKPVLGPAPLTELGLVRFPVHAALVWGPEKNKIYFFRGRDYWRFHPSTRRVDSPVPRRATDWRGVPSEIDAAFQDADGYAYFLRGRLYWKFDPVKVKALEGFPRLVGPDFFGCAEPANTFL

[2] = biological target: Collagenase 3 (Homo sapiens) (UniProt P45452); experiment: Inhibition of MMP13 (unknown origin) up to 50 uM
Aminopeptidase N [3] = biological target: Aminopeptidase N (Homo sapiens, UniProt P15144)
Description: Inhibition of human APN using L-leucine-p-nitroanilide as substrate measured every 10 mins for 2 hrs by spectrophotometric analysis

[4] = biological target: Matrix metalloproteinase-9 (Homo sapiens) (UniProt P14780); experiment: Inhibition of MMP9 (unknown origin) up to 50 uM
HUVEC [5] = experiment: Antiangiogenic activity against human HUVEC cells assessed as inhibition of capillary tube formation at 10 uM after 24 hrs by phase contrast microscopic analysis; format: functional, cell-based
[6] = Cytotoxicity against human HUVEC cells assessed as concentration of compound causing 50% cell death after 24 hrs; format: cell-based; details: read-out: Activity
[7] = biological target: 72 kDa type IV collagenase (Homo sapiens) (UniProt P08253); experiment: Inhibition of MMP2 (unknown origin) up to 50 uM
[8] = biological target: Macrophage metalloelastase (Homo sapiens) (UniProt P39900); experiment: Inhibition of MMP12 (unknown origin) up to 50 uM
HUVEC [9] = experiment: Antiangiogenic activity against human HUVEC cells assessed as inhibition of capillary tube formation at 300 uM after 24 hrs by phase contrast microscopic analysis; format: functional, cell-based
[10] = Chemical stability of the compound in DMSO solution at 5 mg/ml after 20 days at 4 degC; format: physicochemical; details: 480 h
Aminopeptidase N [11] = biological target: T2, Aminopeptidase N (Mus musculus, UniProt P97449); experiment: Inhibition of mouse APN using L-leucine-p-nitroanilide as substrate measured every 10 mins for 2 hrs by spectrophotometric analysis
T2 sequence (P97449 whole entry): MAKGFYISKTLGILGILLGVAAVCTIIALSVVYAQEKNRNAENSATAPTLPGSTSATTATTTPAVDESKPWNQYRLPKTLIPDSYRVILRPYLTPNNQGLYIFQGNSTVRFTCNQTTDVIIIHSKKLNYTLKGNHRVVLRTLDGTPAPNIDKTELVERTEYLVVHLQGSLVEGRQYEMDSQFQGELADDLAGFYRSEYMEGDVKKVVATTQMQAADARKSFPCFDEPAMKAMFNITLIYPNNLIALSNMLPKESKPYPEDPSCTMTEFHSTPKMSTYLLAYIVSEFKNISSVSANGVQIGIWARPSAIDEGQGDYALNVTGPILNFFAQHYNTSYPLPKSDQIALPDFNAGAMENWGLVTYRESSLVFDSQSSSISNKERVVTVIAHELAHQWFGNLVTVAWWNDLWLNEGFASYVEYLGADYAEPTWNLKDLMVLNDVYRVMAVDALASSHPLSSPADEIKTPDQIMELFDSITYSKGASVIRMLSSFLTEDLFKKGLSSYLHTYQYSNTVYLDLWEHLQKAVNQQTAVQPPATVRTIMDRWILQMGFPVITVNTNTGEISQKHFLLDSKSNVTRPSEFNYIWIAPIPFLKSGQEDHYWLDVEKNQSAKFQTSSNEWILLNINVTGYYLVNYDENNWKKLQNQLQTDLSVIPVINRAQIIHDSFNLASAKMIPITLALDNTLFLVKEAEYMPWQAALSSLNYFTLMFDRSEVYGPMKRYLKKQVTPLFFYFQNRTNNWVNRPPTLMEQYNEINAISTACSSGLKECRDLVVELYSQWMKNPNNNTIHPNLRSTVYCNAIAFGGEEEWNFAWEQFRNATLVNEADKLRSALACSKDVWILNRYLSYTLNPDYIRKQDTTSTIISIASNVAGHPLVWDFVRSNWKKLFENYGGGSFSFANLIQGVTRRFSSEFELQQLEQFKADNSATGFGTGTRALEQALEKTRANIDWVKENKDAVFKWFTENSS

HUVEC [12] = experiment: Antimigratory activity against human HUVEC cells at 0.1 to 1 uM after 16 hrs by wound healing assay; format: functional, cell-based
HUVEC [13] = experiment: Antimigratory activity against human HUVEC cells after 16 hrs by wound healing assay; format: functional, cell-based
Caco-2 [14] = experiment: Antimigratory activity against human Caco2/TC7 cells after 16 hrs by wound healing assay; format: functional, cell-based
A673 [15] = experiment: Antiangiogenic activity against human A673 cells xenografted in athymic nude mouse assessed as reduction in microvessel density at 40 mg/kg, ip administered as single dose measured on day 26 relative to control; format: functional, organism-based; set-up: dose 40 mg/kg
Mus musculus [16] = experiment: Toxicity in Swiss nude mouse assessed as catalepsy at 70 mg/kg, ip administered once every 3 days 8 times measured post second-dose; format: organism-based; set-up: dose 70 mg/kg, route intraperitoneal; details: in vivo, 72 h
Caco-2 [17] = experiment: Antimigratory activity against human Caco2/TC7 cells up to 1 uM after 16 hrs by wound healing assay; format: functional, cell-based
[18] = Chemical stability of the compound in DMSO solution at 5 mg/ml after 20 days at -20 degC; format: physicochemical; details: 480 h
Mus musculus [19] = experiment: Toxicity in Swiss nude mouse assessed as adverse effects at 40 mg/kg, ip administered once every 3 days 8 times measured after 29 days; format: organism-based; set-up: dose 40 mg/kg, route intraperitoneal; details: in vivo, 696 h
HUVEC [20] = experiment: Antiangiogenic activity against human HUVEC cells assessed as inhibition of capillary tube formation at 1 uM after 24 hrs by phase contrast microscopic analysis; format: functional, cell-based
A673 [21] = experiment: Antitumor activity against human A673 cells xenografted in athymic nude mouse assessed as tumor growth inhibition at 40 mg/kg, ip administered as single dose measured on day 26 relative to control; format: functional; details: 624 h, route intraperitoneal, read-out: TGI
Mus musculus [22] = experiment: Toxicity in Swiss nude mouse assessed as transient body weight loss at 100 mg/kg, ip measured up to 2 days relative to control; format: organism-based; set-up: dose 100 mg/kg, route intraperitoneal; details: in vivo, 48 h
[23] = Chemical stability of the compound in DMSO solution at 5 mg/ml after 20 days at 25 degC; format: physicochemical; details: 480 h
Mus musculus [24] = experiment: Toxicity in Swiss nude mouse assessed as convulsions at 100 mg/kg, ip administered once every 3 days 4 times measured post second-dose; format: organism-based; set-up: dose 100 mg/kg, route intraperitoneal; details: in vivo, 72 h
HUVEC [25] = experiment: Antimigratory activity against human HUVEC cells assessed as inhibition of VEGF-induced migration at 0.1 uM after 16 hrs by Boyden chamber assay; format: functional
[26] = Antimigratory activity against human Caco2/TC7 cells at 1 uM after 16 hrs by wound healing assay; format: functional, Caco-2
HUVEC [27] = experiment: Antimigratory activity against human HUVEC cells at 0.01 uM after 16 hrs by wound healing assay; format: functional, cell-based
A673 [28] = experiment: Antitumor activity against human A673 cells xenografted in athymic nude mouse assessed as tumor growth inhibition at 30 mg/kg, ip administered as single dose measured on day 26 relative to control; format: functional; details: 624 h, route intraperitoneal, read-out: TGI
[29] = Antitumor activity against human colon cancer cells expressing low level of APN xenografted in athymic nude mouse at 30 mg/kg, ip administered once every 3 days relative to control; format: functional; details: Cancer cell lines, 72 h, route intraperitoneal, read-out: TGI
HUVEC [30] = experiment: Antimigratory activity against human HUVEC cells assessed as inhibition of VEGF-induced migration at 1 uM after 16 hrs by Boyden chamber assay; format: functional
A673 [31] = experiment: Antiangiogenic activity against human A673 cells xenografted in athymic nude mouse assessed as reduction in microvessel density at 30 mg/kg, ip administered as single dose measured on day 26 relative to control; format: functional, organism-based; set-up: dose 30 mg/kg
[32] = Antimigratory activity against human Caco2/TC7 cells at 0.1 uM after 16 hrs by wound healing assay; format: functional, Caco-2
HT-29 = experiment: Antitumor activity against human HT-29 cells expressing low level of APN xenografted in athymic nude mouse at 30 mg/kg, ip administered once every 3 days relative to control; format: functional; details: HT-29, ip, 72 h, route intraperitoneal, read-out: TGI
[33] = Antitumor activity against human colon cancer cells expressing high level of APN xenografted in athymic nude mouse at 30 mg/kg, ip administered once every 3 days relative to control; format: functional; details: Cancer cell lines, 72 h, route intraperitoneal, read-out: TGI

Chain of Macrophage metalloelastase (Homo sapiens) (P39900 106-470 limits assumed): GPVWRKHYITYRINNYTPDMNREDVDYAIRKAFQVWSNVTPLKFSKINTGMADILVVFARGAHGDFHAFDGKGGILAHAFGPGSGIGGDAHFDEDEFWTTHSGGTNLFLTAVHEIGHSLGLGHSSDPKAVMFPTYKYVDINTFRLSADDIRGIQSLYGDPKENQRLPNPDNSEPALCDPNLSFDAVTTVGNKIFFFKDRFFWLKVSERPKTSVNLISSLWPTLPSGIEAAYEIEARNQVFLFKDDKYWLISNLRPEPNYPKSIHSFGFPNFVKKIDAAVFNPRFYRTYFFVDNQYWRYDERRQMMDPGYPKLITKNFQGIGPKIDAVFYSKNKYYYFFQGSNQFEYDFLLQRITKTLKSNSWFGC
Chain of 72 kDa type IV collagenase (Homo sapiens) (P08253 110-660 limits assumed): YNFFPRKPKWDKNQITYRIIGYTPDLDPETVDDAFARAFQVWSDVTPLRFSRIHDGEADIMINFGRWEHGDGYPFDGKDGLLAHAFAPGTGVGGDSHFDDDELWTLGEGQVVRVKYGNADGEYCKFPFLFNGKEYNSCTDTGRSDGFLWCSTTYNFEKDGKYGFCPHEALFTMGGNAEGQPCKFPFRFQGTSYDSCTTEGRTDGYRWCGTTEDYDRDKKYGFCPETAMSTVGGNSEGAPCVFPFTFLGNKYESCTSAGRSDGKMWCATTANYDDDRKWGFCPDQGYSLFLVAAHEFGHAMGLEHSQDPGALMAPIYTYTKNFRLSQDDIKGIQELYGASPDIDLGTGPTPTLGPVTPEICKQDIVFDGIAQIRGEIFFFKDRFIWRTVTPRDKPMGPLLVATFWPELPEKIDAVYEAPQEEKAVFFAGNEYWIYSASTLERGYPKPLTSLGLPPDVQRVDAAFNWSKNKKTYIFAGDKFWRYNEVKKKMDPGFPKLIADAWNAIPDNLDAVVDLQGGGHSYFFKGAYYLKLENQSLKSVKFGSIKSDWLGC
Chain of Matrix metalloproteinase-9 (Homo sapiens) (P14780 whole entry): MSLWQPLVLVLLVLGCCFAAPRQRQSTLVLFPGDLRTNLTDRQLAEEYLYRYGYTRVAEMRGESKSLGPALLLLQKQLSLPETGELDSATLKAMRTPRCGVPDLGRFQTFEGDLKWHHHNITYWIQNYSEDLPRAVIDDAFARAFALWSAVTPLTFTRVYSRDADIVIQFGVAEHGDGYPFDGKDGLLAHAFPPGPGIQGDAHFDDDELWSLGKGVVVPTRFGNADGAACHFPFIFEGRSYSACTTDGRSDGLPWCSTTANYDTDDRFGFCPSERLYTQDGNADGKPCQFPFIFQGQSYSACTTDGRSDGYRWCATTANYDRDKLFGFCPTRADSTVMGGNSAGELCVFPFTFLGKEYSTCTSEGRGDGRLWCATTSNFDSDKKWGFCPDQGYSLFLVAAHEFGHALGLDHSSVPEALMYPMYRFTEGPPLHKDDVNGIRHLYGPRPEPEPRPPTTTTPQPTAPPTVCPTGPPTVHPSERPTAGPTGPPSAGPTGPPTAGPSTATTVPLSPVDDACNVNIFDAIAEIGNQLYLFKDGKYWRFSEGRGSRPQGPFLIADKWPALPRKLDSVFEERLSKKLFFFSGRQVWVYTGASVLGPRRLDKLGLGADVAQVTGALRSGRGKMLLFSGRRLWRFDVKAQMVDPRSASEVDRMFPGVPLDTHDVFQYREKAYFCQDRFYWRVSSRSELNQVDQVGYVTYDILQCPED
Chain of Aminopeptidase N (Homo sapiens, UniProt P15144) (P15144 whole entry): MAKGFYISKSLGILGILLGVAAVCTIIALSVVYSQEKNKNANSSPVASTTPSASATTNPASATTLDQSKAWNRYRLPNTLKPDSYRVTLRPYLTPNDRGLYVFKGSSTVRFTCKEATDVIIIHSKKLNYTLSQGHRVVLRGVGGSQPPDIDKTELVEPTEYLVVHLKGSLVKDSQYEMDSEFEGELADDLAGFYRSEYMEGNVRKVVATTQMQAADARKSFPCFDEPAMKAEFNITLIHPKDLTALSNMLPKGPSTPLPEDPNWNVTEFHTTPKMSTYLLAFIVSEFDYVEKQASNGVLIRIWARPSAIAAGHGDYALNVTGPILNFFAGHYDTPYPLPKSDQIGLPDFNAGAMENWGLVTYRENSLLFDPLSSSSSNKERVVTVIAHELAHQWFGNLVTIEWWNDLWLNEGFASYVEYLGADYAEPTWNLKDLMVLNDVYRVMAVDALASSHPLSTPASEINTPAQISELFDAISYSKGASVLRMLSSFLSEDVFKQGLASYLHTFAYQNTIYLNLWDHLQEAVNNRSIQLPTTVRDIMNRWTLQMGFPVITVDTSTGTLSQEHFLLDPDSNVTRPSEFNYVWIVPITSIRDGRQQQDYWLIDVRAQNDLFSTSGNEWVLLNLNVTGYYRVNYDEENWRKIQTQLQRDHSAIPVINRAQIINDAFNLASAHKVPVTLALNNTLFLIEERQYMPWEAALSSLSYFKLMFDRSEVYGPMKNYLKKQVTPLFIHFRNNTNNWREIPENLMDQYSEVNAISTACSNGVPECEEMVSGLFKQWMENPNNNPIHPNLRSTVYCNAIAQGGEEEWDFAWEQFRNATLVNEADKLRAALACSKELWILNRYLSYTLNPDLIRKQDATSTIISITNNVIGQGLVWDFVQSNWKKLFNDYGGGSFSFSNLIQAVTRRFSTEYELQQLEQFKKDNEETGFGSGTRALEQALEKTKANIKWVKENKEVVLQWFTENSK

Compound	inhibition [1]	inhibition [2]	Ki (Aminopeptidase N [3])	inhibition [4]	CC50 at 24 h [6]	inhibition [7]	inhibition [8]	Stability [10]	Ki (Aminopeptidase N [11])	Activity (HUVEC [12])	Activity (HUVEC [13])	Activity (Caco-2 [14])	Stability [18]	Activity (Mus musculus [19])	inhibition (HUVEC [20])	Stability [23]	also measured
NC1CCc2ccccc2CC1=O (stereo unspecified)	inactive	inactive	2000 nM	inactive	100 µM	inactive	inactive	–	–	–	–	–	–	–	–	–	inhibition (HUVEC [5]): Active
CC(C)C[C@H](NC(=O)[C@@H](O)[C@H](N)Cc1ccccc1)C(=O)O	–	–	–	–	–	–	–	–	–	–	–	–	–	–	–	–	inhibition (HUVEC [9]): Active
Cl.NC1CCc2cccc(-c3ccccc3)c2CC1=O (stereo unspecified)	inactive	inactive	11 nM	inactive	20 µM	inactive	inactive	Stable	10 nM	Active	Dose-dependent effect	Dose-dependent effect	Stable	Non-toxic	Active	Stable	Activity (A673 [15]): inactive; Activity (Mus musculus [16]): Toxic; Activity (Caco-2 [17]): inactive; inhibition in vivo at 40 mg/kg (A673 [21]): 18%; Activity (Mus musculus [22]): Toxic; Activity (Mus musculus [24]): Toxic; inhibition at 0.1 µM (HUVEC [25]): 70%
NC1CCc2c(Br)ccc(-c3ccccc3)c2CC1=O (stereo unspecified)	inactive	inactive	–	inactive	10 µM	inactive	inactive	Stable	0.2 nM	Active	Dose-dependent effect	Dose-dependent effect	Stable	Non-toxic	Active	Stable	Activity [26]: 40%; Activity (HUVEC [27]): Active; inhibition in vivo at 30 mg/kg (A673 [28]): 44%; inhibition in vivo at 30 mg/kg [29]: 8%; inhibition at 1 µM (HUVEC [30]): 70%; Activity (A673 [31]): Active; Activity [32]: 30%; inhibition in vivo at 30 mg/kg (HT-29): 15%; inhibition in vivo at 30 mg/kg [33]: 26%
